Source: patent publication US10927125B2, “Substituted cinnolines as inhibitors of KRAS G12C” (Araxes Pharma LLC, priority 2013, dated 2021)

Target: T1, KRAS G12C 1-169, his-tagged protein, GDP-loaded (Homo sapiens, UniProt P01116, G12C)
T1 construct: KRAS G12C 1-169, his-tagged protein, GDP-loaded
Experiment: Biochemical assay: covalent binding of compounds to KRAS G12C, analysed by mass spectrometry
Procedure: Compounds were tested for activity as follows:
Compounds were diluted to 50× final test concentration in DMSO in 96-well storage plates. […] Reactions were mixed carefully and thoroughly by pipetting up/down with a 200 μl multi-channel pipettor. The plate was sealed well with aluminum plate seal, and stored in drawer at room temperature for 30 min, 2 hour or 24 hrs. 51 μl of 2% formic acid (Fisher cat # A117) in DI H2O was then added to each well followed by mixing with a pipette. The plate was then resealed with aluminum seal and stored on dry ice until analyzed as described below.
The above described assays were analyzed by mass spectrometry according to the following procedure:
The MS instrument is set to positive polarity, 2 GHz resolution, and low mass (1700) mode and allowed to equilibrate for 30 minutes. The instrument is then calibrated, switched to acquisition mode and the appropriate method loaded.
After another 30 minute equilibration time, a blank batch (i.e., buffer) is run to ensure equipment is operating properly. The samples are thawed at 37° C. for 10 minutes, briefly centrifuged, and transfer to the bench top. Wells A1 and H12 are spiked with 1 uL 500 uM internal standard peptide, and the plates centrifuged at 2000×g for 5 minutes. The method is then run and masses of each individual well recorded.
The masses (for which integration data is desired) for each well are pasted into the platemap and exported from the analysis. Masses for the internal standards are exported as well. The data at 50 ppm is extracted for the +19 charge state, and identity of well A1 is assigned using the internal standard spike and integrated. Peak data is exported as a TOF list and the above steps are repeated individually, for the +20, 21, 22, 23, 24, and 25 charge states.

[1] = binding measured at 30 min (compounds 247-375)
[2] = binding measured at 24 h (compounds 1-47)

T1 sequence (P01116 1-169 isoform P01116-2 G12C): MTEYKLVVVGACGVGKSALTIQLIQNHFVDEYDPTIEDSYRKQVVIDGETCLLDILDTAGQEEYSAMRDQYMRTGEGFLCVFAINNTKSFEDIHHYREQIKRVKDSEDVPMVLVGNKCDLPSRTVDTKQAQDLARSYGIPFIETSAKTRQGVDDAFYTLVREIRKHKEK

C=CC(=O)N1CCN(c2ncnc3c(F)c(-c4c(F)cccc4CN(C)C)c(Cl)cc23)CC1 [Compound 362, 1-(4-(6-chloro-7-(2-((dimethylamino)methyl)-6-fluorophenyl)-8-fluoroquinazolin-4-yl)piperazin-1-yl)prop-2-en-1-one]
Binding % [1]: ++ (++ indicates binding activity greater than 25% and up to 50%)

C=CC(=O)N1CCN(c2nc(OCCc3nccn3C)nc3c(F)c(-c4c(C)ccc5[nH]ncc45)c(Cl)cc23)CC1 [Compound 369, 1-(4-(6-chloro-8-fluoro-2-(2-(1-methyl-1H-imidazol-2-yl)ethoxy)-7-(5-methyl-1H-indazol-4-yl)quinazolin-4-yl)piperazin-1-yl)prop-2-en-1-one]
Binding % [1]: ++++ (++++ indicates binding activity greater than 75%)

C=CC(=O)N1CCN(c2nc(NC3CCOCC3)nc3c(F)c(-c4c(C)ccc5[nH]ncc45)c(Cl)cc23)CC1 [Compound 365, 1-(4-(6-chloro-8-fluoro-7-(5-methyl-1H-indazol-4-yl)-2-(tetrahydro-2H-pyran-4-ylamino)quinazolin-4-yl)piperazin-1-yl)prop-2-en-1-one]
Binding % [1]: ++++ (++++ indicates binding activity greater than 75%)

C=CC(=O)N1CCN(c2nc(OCCN(C)C)nc3c(F)c(-c4cc(O)cc5ccccc45)c(Cl)cc23)CC1 [Compound 374, 1-(4-(6-chloro-2-(2-(dimethylamino)ethoxy)-8-fluoro-7-(3-hydroxynaphthalen-1-yl)quinazolin-4-yl)piperazin-1-yl)prop-2-en-1-one]
Binding % [1]: +++ (+++ indicates binding activity greater than 50% and up to 75%)

C=CC(=O)N1CCN(c2nc(N(C)CCN(C)C)nc3c(F)c(-c4c(C)ccc5[nH]ncc45)c(Cl)cc23)CC1 [Compound 371, 1-(4-(6-chloro-2-((2-(dimethylamino)ethyl)(meth-yl)amino)-8-fluoro-7-(5-methyl-1H-indazol-4-yl)quinazolin-4-yl)piperazin-1-yl)prop-2-en-1-one]
Binding % [1]: ++ (++ indicates binding activity greater than 25% and up to 50%)

C=CC(=O)N1CCN(c2nc(OCCNC(C)=O)nc3c(F)c(-c4c(C)ccc5[nH]ncc45)c(Cl)cc23)CC1 [Compound 366, N-(2-(4-(4-acryloylpiperazin-1-yl)-6-chloro-8-fluoro-7-(5-methyl-1H-indazol-4-yl)quinazolin-2-yloxy)ethyl)acetamide]
Binding % [1]: ++++ (++++ indicates binding activity greater than 75%)

C=CC(=O)N1CCN(c2ncnc3c(F)c(-c4c(F)ccc5cn[nH]c45)c(Cl)cc23)CC1 [Compound 368, 1-(4-(6-chloro-8-fluoro-7-(6-fluoro-1H-indazol-7-yl)quinazolin-4-yl)piperazin-1-yl)prop-2-en-1-one]
Binding % [1]: ++++ (++++ indicates binding activity greater than 75%)

C=CC(=O)N1CCN(c2nccc3cc(Cl)c(-c4ccc(Cl)cc4O)cc23)CC1 [Compound 38, 1-(4-(6-chloro-7-(4-chloro-2-hydroxyphenyl)isoquinolin-1-yl)piperazin-1-yl)prop-2-en-1-one]
Binding % [2]: ++ (++ indicates binding activity greater than 25% and up to 50%)

C=CC(=O)N1CCN(c2cnnc3cc(-c4cc(O)cc5ccccc45)c(C(F)(F)F)cc23)CC1 [Compound 351, 1-(4-(7-(3-hydroxynaphthalen-1-yl)-6-(trifluoromethyl)cinnolin-4-yl)piperazin-1-yl)prop-2-en-1-one]
Binding % [1]: ++++ (++++ indicates binding activity greater than 75%)

C=CC(=O)N1CCN(c2nc(NC3CCN(C)C3)nc3c(F)c(-c4c(C)ccc5[nH]ncc45)c(Cl)cc23)CC1 (stereo not drawn) [Compound 372, 1-(4-(6-chloro-8-fluoro-7-(5-methyl-1H-indazol-4-yl)-2-(1-methylpyrrolidin-3-ylamino)quinazolin-4-yl)piperazin-1-yl)prop-2-en-1-one]
Binding % [1]: +++ (+++ indicates binding activity greater than 50% and up to 75%)

C=CC(=O)N1CCN(c2ncnc3c(F)c(-c4cc(O)cc5ccccc45)c(Cl)cc23)CC1CN(C)C (stereo not drawn) [Compound 346, 1-(4-(6-chloro-8-fluoro-7-(3-hydroxynaphthalen-1-yl)quinazolin-4-yl)-2-((dimethylamino)meth-yl)piperazin-1-yl)prop-2-en-1-one]
Binding % [1]: ++++ (++++ indicates binding activity greater than 75%)

C=CC(=O)N1CCN(c2nc(N(C)CCN(C)C)nc3c(F)c(-c4cc(O)cc5ccccc45)c(Cl)cc23)CC1 [Compound 361, 1-(4-(6-chloro-2-((2-(dimethylamino)ethyl)(meth-yl)amino)-8-fluoro-7-(3-hydroxynaphthalen-1-yl)quinazolin-4-yl)piperazin-1-yl)prop-2-en-1-one]
Binding % [1]: ++++ (++++ indicates binding activity greater than 75%)

C=CC(=O)N1CCN(c2nc(CN(C)C)nc3c(F)c(-c4c(C)ccc5[nH]ncc45)c(Cl)cc23)CC1 [Compound 254, 1-(4-(6-chloro-2-((dimethylamino)methyl)-8-fluoro-7-(5-methyl-1H-indazol-4-yl)quinazolin-4-yl)piperazin-1-yl)prop-2-en-1-one]
Binding % [1]: +++ (+++ indicates binding activity greater than 50% and up to 75%)

C=CC(=O)N1CCN(c2ncnc3cc(-c4cc(C)cc5[nH]ncc45)c(Cl)cc23)CC1 [Compound 262, 1-(4-(6-chloro-7-(6-methyl-1H-indazol-4-yl)quinazolin-4-yl)piperazin-1-yl)prop-2-en-1-one]
Binding % [1]: + (+ indicates binding activity from 5% to 25%)

C=CC(=O)N1CCN(c2ncnc3c(OC)c(-c4cc(O)cc5ccccc45)c(Cl)cc23)CC1 [Compound 348, 1-(4-(6-chloro-7-(3-hydroxynaphthalen-1-yl)-8-methoxyquinazolin-4-yl)piperazin-1-yl)prop-2-en-1-one]
Binding % [1]: ++++ (++++ indicates binding activity greater than 75%)

C=CC(=O)N1CCN(c2ncnc3cc(-c4c(O)cccc4F)c(Cl)cc23)CC1 [Compound 138, 1-(4-(6-chloro-7-(2-fluoro-6-hydroxyphenyl)quinazolin-4-yl)piperazin-1-yl)prop-2-en-1-one]
Binding % (binding measured at 2 h (compounds 48-246)): ++++ (++++ indicates binding activity greater than 75%)

C=CC(=O)N1CCN(c2ncnc3cc(-c4c(O)cccc4F)c(Cl)c(F)c23)CC1 [Compound 343, 1-(4-(6-chloro-5-fluoro-7-(2-fluoro-6-hydroxyphenyl)quinazolin-4-yl)piperazin-1-yl)prop-2-en-1-one]
Binding % [1]: +++ (+++ indicates binding activity greater than 50% and up to 75%)

C=CC(=O)N1CCN(c2ncnc3c(F)c(-c4cc(O)cc5ccccc45)c(Cl)cc23)CC1CO (stereo not drawn) [Compound 256, 1-(4-(6-chloro-8-fluoro-7-(3-hydroxynaphthalen-1-yl)quinazolin-4-yl)-2-(hydroxymethyl)piperazin-1-yl)prop-2-en-1-one]
Binding % [1]: +++ (+++ indicates binding activity greater than 50% and up to 75%)

C=CC(=O)N1CCN(c2ncnc3c(F)c(-c4c(F)ccc5c(C)n[nH]c45)c(Cl)cc23)CC1 [Compound 359, 1-(4-(6-chloro-8-fluoro-7-(6-fluoro-3-methyl-1H-indazol-7-yl)quinazolin-4-yl)piperazin-1-yl)prop-2-en-1-one]
Binding % [1]: ++++ (++++ indicates binding activity greater than 75%)

C=CC(=O)N1CCN(c2ncnc3cc(Cl)c(-c4ccc(Br)cc4)cc23)CC1 [Compound 40, 1-(4-(6-(4-bromophenyl)-7-chloroquinazolin-4-yl)piperazin-1-yl)prop-2-en-1-one]
Binding % [2]: +++ (+++ indicates binding activity greater than 50% and up to 75%)

C=CC(=O)N1CCN(c2nc(NC3CCOC3)nc3c(F)c(-c4c(C)ccc5[nH]ncc45)c(Cl)cc23)CC1 (stereo not drawn) [Compound 347, 1-(4-(6-chloro-8-fluoro-7-(5-methyl-1H-indazol-4-yl)-2-(tetrahydrofuran-3-ylamino)quinazolin-4-yl)piperazin-1-yl)prop-2-en-1-one]
Binding % [1]: ++++ (++++ indicates binding activity greater than 75%)

C=CC(=O)N1CCN(c2nc(OCCN3CCCC3)nc3c(F)c(-c4c(C)ccc5[nH]ncc45)c(Cl)cc23)CC1 [Compound 358, 1-(4-(6-chloro-8-fluoro-7-(5-methyl-1H-indazol-4-yl)-2-(2-(pyrrolidin-1-yl)ethoxy)quinazolin-4-yl)piperazin-1-yl)prop-2-en-1-one]
Binding % [1]: ++++ (++++ indicates binding activity greater than 75%)

C=CC(=O)N1CCN(c2ncnc3c(F)c(-c4c(O)cccc4F)c(Cl)cc23)CC1 [Compound 370, (R)-1-(4-(6-chloro-8-fluoro-7-(2-fluoro-6-hydroxyphenyl)quinazolin-4-yl)piperazin-1-yl)prop-2-en-1-one]
Binding % [1]: + (+ indicates binding activity from 5% to 25%)

C=CC(=O)N1CCN(c2ncnc3c(OC)c(-c4c(C)ccc5[nH]ncc45)c(Cl)cc23)CC1 [Compound 302, 1-(4-(6-chloro-8-methoxy-7-(5-methyl-1H-indazol-4-yl)quinazolin-4-yl)piperazin-1-yl)prop-2-en-1-one]
Binding % [1]: +++ (+++ indicates binding activity greater than 50% and up to 75%)
